Test results reported in the NIST ThermoML archive (doi:10.1016/j.jct.2007.07.005).
Numbers after ± are expanded uncertainties.

Assay: xn = mol fraction of the nth substance listed
Conditions: Fluid (supercritical or subcritical phases), vibrating tube

CCCCCO [pentan-1-ol] + O=C=O
Conditions | mass density [kg/m3]
313.11 K, 24020 kPa, x2 = 0.0816 | 821.33 ± 0.45
313.11 K, 25023 kPa, x2 = 0.0816 | 822.02 ± 0.45
313.12 K, 10002 kPa, x2 = 0.8573 | 809.77 ± 0.54
313.12 K, 10012 kPa, x2 = 0.7274 | 838.41 ± 0.47
313.12 K, 11010 kPa, x2 = 0.7274 | 841.91 ± 0.46
313.12 K, 11023 kPa, x2 = 0.8573 | 818.98 ± 0.53
313.12 K, 11998 kPa, x2 = 0.7274 | 845.15 ± 0.46
313.12 K, 12025 kPa, x2 = 0.8573 | 826.77 ± 0.51
313.12 K, 13005 kPa, x2 = 0.8573 | 833.59 ± 0.5
313.12 K, 13032 kPa, x2 = 0.7274 | 848.39 ± 0.46
313.12 K, 14012 kPa, x2 = 0.8573 | 839.94 ± 0.5
313.12 K, 14027 kPa, x2 = 0.7274 | 851.37 ± 0.46
313.12 K, 15004 kPa, x2 = 0.7274 | 854.2 ± 0.46
313.12 K, 15004 kPa, x2 = 0.8573 | 845.66 ± 0.49
313.12 K, 15995 kPa, x2 = 0.8573 | 851 ± 0.49
313.12 K, 16022 kPa, x2 = 0.7274 | 857 ± 0.46
313.12 K, 17007 kPa, x2 = 0.8573 | 856.08 ± 0.49
313.12 K, 17019 kPa, x2 = 0.7274 | 859.65 ± 0.46
313.12 K, 18013 kPa, x2 = 0.8573 | 860.84 ± 0.48
313.12 K, 18018 kPa, x2 = 0.7274 | 862.21 ± 0.46
313.12 K, 19038 kPa, x2 = 0.8573 | 865.44 ± 0.48
313.12 K, 19055 kPa, x2 = 0.7274 | 864.78 ± 0.46
313.12 K, 19966 kPa, x2 = 0.7274 | 866.98 ± 0.46
313.12 K, 20008 kPa, x2 = 0.8573 | 869.59 ± 0.48
313.12 K, 21008 kPa, x2 = 0.8573 | 873.67 ± 0.48
313.12 K, 21014 kPa, x2 = 0.7274 | 869.44 ± 0.46
313.12 K, 22009 kPa, x2 = 0.8573 | 877.54 ± 0.48
313.12 K, 22029 kPa, x2 = 0.7274 | 871.77 ± 0.46
313.12 K, 23015 kPa, x2 = 0.8573 | 881.34 ± 0.48
313.12 K, 23059 kPa, x2 = 0.7274 | 874.05 ± 0.47
313.12 K, 23995 kPa, x2 = 0.8573 | 884.88 ± 0.48
313.14 K, 5019 kPa, x2 = 0.1347 | 808.85 ± 0.44
313.14 K, 6010 kPa, x2 = 0.1347 | 809.58 ± 0.44
313.14 K, 7003 kPa, x2 = 0.1347 | 810.4 ± 0.44
313.14 K, 8042 kPa, x2 = 0.1347 | 811.24 ± 0.44
313.14 K, 9023 kPa, x2 = 0.1347 | 812.05 ± 0.44
313.14 K, 10012 kPa, x2 = 0.1347 | 812.85 ± 0.44
313.14 K, 11019 kPa, x2 = 0.1347 | 813.62 ± 0.44
313.14 K, 12025 kPa, x2 = 0.1347 | 814.42 ± 0.44
313.14 K, 13017 kPa, x2 = 0.1347 | 815.18 ± 0.44
313.14 K, 14011 kPa, x2 = 0.1347 | 815.96 ± 0.44
313.14 K, 15011 kPa, x2 = 0.1347 | 816.73 ± 0.45
313.14 K, 16014 kPa, x2 = 0.1347 | 817.47 ± 0.45
313.14 K, 17041 kPa, x2 = 0.1347 | 818.22 ± 0.45
313.14 K, 18022 kPa, x2 = 0.1347 | 818.95 ± 0.45
313.14 K, 19022 kPa, x2 = 0.1347 | 819.67 ± 0.45
313.14 K, 20012 kPa, x2 = 0.1347 | 820.39 ± 0.45
313.14 K, 21027 kPa, x2 = 0.1347 | 821.12 ± 0.45
313.14 K, 22024 kPa, x2 = 0.1347 | 821.83 ± 0.45
313.14 K, 23011 kPa, x2 = 0.1347 | 822.55 ± 0.45
313.14 K, 24032 kPa, x2 = 0.1347 | 823.28 ± 0.45
313.14 K, 25004 kPa, x2 = 0.1347 | 824 ± 0.45
313.17 K, 8123 kPa, x2 = 0.6054 | 838.39 ± 0.45
313.17 K, 9084 kPa, x2 = 0.6054 | 840.4 ± 0.44
313.17 K, 10125 kPa, x2 = 0.6054 | 842.5 ± 0.45
313.17 K, 11050 kPa, x2 = 0.6054 | 844.32 ± 0.45
313.17 K, 12045 kPa, x2 = 0.6054 | 846.23 ± 0.45
313.17 K, 13094 kPa, x2 = 0.6054 | 848.18 ± 0.45
313.17 K, 14054 kPa, x2 = 0.6054 | 849.93 ± 0.45
313.17 K, 15019 kPa, x2 = 0.6054 | 851.65 ± 0.45
313.17 K, 16045 kPa, x2 = 0.6054 | 853.41 ± 0.45
313.17 K, 17046 kPa, x2 = 0.6054 | 855.12 ± 0.45
313.17 K, 18027 kPa, x2 = 0.6054 | 856.75 ± 0.45
313.17 K, 19070 kPa, x2 = 0.6054 | 858.44 ± 0.45
313.17 K, 20036 kPa, x2 = 0.6054 | 859.99 ± 0.45
313.17 K, 21030 kPa, x2 = 0.6054 | 861.55 ± 0.46
313.17 K, 22042 kPa, x2 = 0.6054 | 863.12 ± 0.46
313.17 K, 23036 kPa, x2 = 0.6054 | 864.64 ± 0.46
313.17 K, 24020 kPa, x2 = 0.6054 | 866.12 ± 0.46
313.17 K, 25040 kPa, x2 = 0.6054 | 867.64 ± 0.46
322.89 K, 520 kPa, x2 = 0 | 792.06 ± 0.43
322.89 K, 1010 kPa, x2 = 0 | 792.47 ± 0.43
322.89 K, 2005 kPa, x2 = 0 | 793.27 ± 0.43
322.89 K, 3007 kPa, x2 = 0 | 794.07 ± 0.44
322.89 K, 4005 kPa, x2 = 0 | 794.86 ± 0.44
322.89 K, 5018 kPa, x2 = 0 | 795.63 ± 0.44
322.89 K, 6001 kPa, x2 = 0 | 796.42 ± 0.44
322.89 K, 7016 kPa, x2 = 0 | 797.2 ± 0.44
322.89 K, 8020 kPa, x2 = 0 | 797.97 ± 0.44
322.89 K, 8997 kPa, x2 = 0 | 798.71 ± 0.44
322.89 K, 10001 kPa, x2 = 0 | 799.47 ± 0.44
322.89 K, 11005 kPa, x2 = 0 | 800.21 ± 0.44
322.89 K, 11996 kPa, x2 = 0 | 800.95 ± 0.44
322.89 K, 13002 kPa, x2 = 0 | 801.68 ± 0.44
322.89 K, 14013 kPa, x2 = 0 | 802.4 ± 0.44
322.89 K, 15005 kPa, x2 = 0 | 803.11 ± 0.44
322.89 K, 16014 kPa, x2 = 0 | 803.82 ± 0.45
322.89 K, 17001 kPa, x2 = 0 | 804.51 ± 0.45
322.89 K, 18016 kPa, x2 = 0 | 805.21 ± 0.45
322.89 K, 19012 kPa, x2 = 0 | 805.89 ± 0.45
322.89 K, 19992 kPa, x2 = 0 | 806.56 ± 0.45
322.89 K, 21036 kPa, x2 = 0 | 807.26 ± 0.45
322.89 K, 22003 kPa, x2 = 0 | 807.92 ± 0.45
322.89 K, 23024 kPa, x2 = 0 | 808.61 ± 0.45
322.89 K, 23994 kPa, x2 = 0 | 809.26 ± 0.45
322.89 K, 25023 kPa, x2 = 0 | 810 ± 0.45
323.05 K, 3011 kPa, x2 = 0.0816 | 797.79 ± 0.44
323.05 K, 4020 kPa, x2 = 0.0816 | 798.67 ± 0.44
323.05 K, 5030 kPa, x2 = 0.0816 | 799.53 ± 0.44
323.05 K, 6018 kPa, x2 = 0.0816 | 800.37 ± 0.44
323.05 K, 7017 kPa, x2 = 0.3624 | 815.3 ± 0.44
323.05 K, 7023 kPa, x2 = 0.0816 | 801.2 ± 0.44
323.05 K, 8013 kPa, x2 = 0.0816 | 802.02 ± 0.44
323.05 K, 8029 kPa, x2 = 0.4651 | 820.04 ± 0.44
323.05 K, 8051 kPa, x2 = 0.3624 | 816.51 ± 0.44
323.05 K, 9009 kPa, x2 = 0.4651 | 821.63 ± 0.44
323.05 K, 9023 kPa, x2 = 0.0816 | 802.84 ± 0.44
323.05 K, 9034 kPa, x2 = 0.3624 | 817.64 ± 0.44
323.05 K, 9991 kPa, x2 = 0.4651 | 823.23 ± 0.44
323.05 K, 10026 kPa, x2 = 0.0816 | 803.67 ± 0.44
323.05 K, 10029 kPa, x2 = 0.3624 | 818.77 ± 0.44
323.05 K, 11006 kPa, x2 = 0.0816 | 804.46 ± 0.44
323.05 K, 11012 kPa, x2 = 0.4651 | 824.81 ± 0.44
323.05 K, 11015 kPa, x2 = 0.8067 | 800.23 ± 0.54
323.05 K, 11022 kPa, x2 = 0.3624 | 819.83 ± 0.44
323.05 K, 11033 kPa, x2 = 0.9757 | 625.72 ± 1.2
323.05 K, 11992 kPa, x2 = 0.0816 | 805.23 ± 0.44
323.05 K, 11993 kPa, x2 = 0.4651 | 826.28 ± 0.45
323.05 K, 11995 kPa, x2 = 0.9757 | 668.32 ± 0.99
323.05 K, 12003 kPa, x2 = 0.3624 | 820.86 ± 0.44
323.05 K, 12032 kPa, x2 = 0.8067 | 808.05 ± 0.5
323.05 K, 13015 kPa, x2 = 0.3624 | 821.9 ± 0.44
323.05 K, 13017 kPa, x2 = 0.9757 | 699.41 ± 0.87
323.05 K, 13024 kPa, x2 = 0.4651 | 827.83 ± 0.45
